Laboratory results published in ChEMBL document CHEMBL1144903, “Generation of predictive pharmacophore models for CCR5 antagonists: study with piperidine- and piperazine-based compounds as a new class of HIV-1 entry inhibitors” (J Med Chem, 2003).
pKi: −log10 of the molar value.

biological target: C-C chemokine receptor type 5 (Homo sapiens, UniProt P51681); assay: Inhibition of RANTES binding to the human C-C chemokine receptor type 5 (CCR5)
Sequence (P51681 whole entry): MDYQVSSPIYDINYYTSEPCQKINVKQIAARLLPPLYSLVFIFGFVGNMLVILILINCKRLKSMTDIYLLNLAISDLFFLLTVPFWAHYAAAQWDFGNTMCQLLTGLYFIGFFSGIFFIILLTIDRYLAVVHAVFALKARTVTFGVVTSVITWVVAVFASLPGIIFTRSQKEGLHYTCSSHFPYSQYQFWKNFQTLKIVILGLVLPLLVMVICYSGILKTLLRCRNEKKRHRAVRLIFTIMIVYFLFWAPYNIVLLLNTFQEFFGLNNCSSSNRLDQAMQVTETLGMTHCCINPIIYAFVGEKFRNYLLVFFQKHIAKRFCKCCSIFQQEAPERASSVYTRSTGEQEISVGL

pKi	Structure (SMILES)
6.44	Cc1cccc(C)c1C(=O)N1CCC(C)(N2CCC(Cc3ccc(-c4ccccc4)cc3)CC2)CC1
7.17	Cc1cccc(C)c1C(=O)N1CCC(C)(N2CCC(Cc3ccc(Cl)cc3)CC2)CC1
6.81	COc1ccc(CC2CCN(C3(C)CCN(C(=O)c4c(C)cccc4C)CC3)CC2)cc1
7.48	Cc1cccc(C)c1C(=O)N1CCC(C)(N2CCC(Cc3ccc(I)cc3)CC2)CC1
7.48	Cc1cccc(C)c1C(=O)N1CCC(C)(N2CCC(Cc3ccc(S(C)(=O)=O)cc3)CC2)CC1
7.60	Cc1cccc(C)c1C(=O)N1CCC(C)(N2CCC(Cc3ccc(C(F)(F)F)cc3)CC2)CC1
8.10	C=C(c1ccc(Br)cc1)C1CCN(C2(C)CCN(C(=O)c3c(C)cccc3C)CC2)CC1
6.96	Cc1ccc(CC2CCN(C3(C)CCN(C(=O)c4c(C)cccc4C)CC3)CC2)cc1
7.21	Cc1cccc(C)c1C(=O)N1CCC(C)(N2CCC(C(C)c3ccc(Br)cc3)CC2)CC1 (configuration not stated)
8.70	CO/N=C(/c1ccc(Br)cc1)C1CCN(C2(C)CCN(C(=O)c3c(C)cccc3C)CC2)CC1
7.92	C[C@H]1CN(C2(C)CCN(C(=O)c3c(N)cccc3Cl)CC2)CCN1[C@@H](C)c1ccc(I)cc1
9.00	Cc1cccc(C)c1C(=O)N1CCC(C)(N2CCN([C@@H](C)c3ccc(C(F)(F)F)cc3)[C@@H](C)C2)CC1
8.06	CCO/N=C(/c1ccc(Br)cc1)C1CCN(C2(C)CCN(C(=O)c3c(C)c[n+]([O-])cc3C)CC2)CC1
8.64	CCO/N=C(/c1ccc(Br)cc1)C1CCN(C2(C)CCN(C(=O)c3c(C)cncc3C)CC2)CC1
7.59	CCO/N=C(/c1ccc(Br)cc1)C1CCN(C2(C)CCN(C(=O)c3cccnc3C)CC2)CC1
7.72	CO/N=C(/c1ccc(Br)cc1)C1CCN(C2(C)CCN(C(=O)c3c(C)cc[n+]([O-])c3C)CC2)CC1
7.70	CCO/N=C(/c1ccc(S(C)(=O)=O)cc1)C1CCN(C2(C)CCN(C(=O)c3c(C)cc[n+]([O-])c3C)CC2)CC1
8.96	CCO/N=C(/c1ccc(Br)cc1)C1CCN(C2(C)CCN(C(=O)c3c(C)ccnc3C)CC2)CC1
8.92	CCO/N=C(/c1ccc(Br)cc1)C1CCN(C2(C)CCN(C(=O)c3c(Cl)c[n+]([O-])cc3Cl)CC2)CC1
7.52	CO/N=C(/c1ccc(S(C)(=O)=O)cc1)C1CCN(C2(C)CCN(C(=O)c3c(C)cc[n+]([O-])c3C)CC2)CC1
7.37	CCO/N=C(/c1ccc(Br)cc1)C1CCN(C2(C)CCN(C(=O)c3c(C)cc(C)nc3O)CC2)CC1
8.40	Cc1cccc(C)c1C(=O)N1CCC(C)(N2CCC(/C(=N\OC(C)C)c3ccc(Br)cc3)CC2)CC1
8.35	CO/N=C(/c1ccc(Br)cc1)C1CCN(C2(C)CCN(C(=O)c3c(C)cccc3N)CC2)CC1
< 7.52	CCO/N=C(/c1ccc(Br)cc1)C1CCN(C2(C)CCN(C(=O)c3c(C)cc[nH]c3=O)CC2)CC1

pKi	Structure (SMILES)
8.96	CO/N=C(/c1ccc(Br)cc1)C1CCN(C2(C)CCN(C(=O)c3c(C)ccnc3C)CC2)CC1
7.80	CCO/N=C(/c1ccc(Br)cc1)C1CCN(C2(C)CCN(C(=O)c3c(C)ccc[n+]3[O-])CC2)CC1
< 7.52	Cc1cccc(C)c1C(=O)N1CCC(C)(N2CCC(/C(=N\Oc3ccccc3)c3ccc(Br)cc3)CC2)CC1
5.89	C[C@H]1CN(C2CCN(C(=O)c3c(F)cccc3I)CC2)CCN1[C@@H](C)c1ccc(I)cc1
< 7.52	CCO/N=C(/c1ccc(Br)cc1)C1CCN(C2(C)CCN(C(=O)c3ccc[n+]([O-])c3C)CC2)CC1
10.00	CCO/N=C(/c1ccc(Br)cc1)C1CCN(C2(C)CCN(C(=O)c3c(C)cc(-c4ccncc4)cc3C)CC2)CC1
< 7.52	CCO/N=C(/c1ccc(Br)cc1)C1CCN(C2(C)CCN(C(=O)c3cccnc3)CC2)CC1
< 7.52	CCO/N=C(/c1ccc(Br)cc1)C1CCN(C2(C)CCN(C(=O)c3ccc[n+]([O-])c3)CC2)CC1
8.33	CO/N=C(/c1ccc(Br)cc1)C1CCN(C2(C)CCN(C(=O)c3c(C)ncnc3C)CC2)CC1
7.52	CCO/N=C(/c1ccc(F)cc1)C1CCN(C2(C)CCN(C(=O)c3c(C)cc[n+]([O-])c3C)CC2)CC1
7.48	CCOC(=O)CO/N=C(/c1ccc(Br)cc1)C1CCN(C2(C)CCN(C(=O)c3c(C)cccc3C)CC2)CC1
8.66	CCO/N=C(/c1ccc(Br)cc1)C1CCN(C2(C)CCN(C(=O)c3c(C)ncnc3C)CC2)CC1
8.42	CCO/N=C(/c1ccc(C(F)(F)F)cc1)C1CCN(C2(C)CCN(C(=O)c3c(C)cc[n+]([O-])c3C)CC2)CC1
7.26	Cc1cccc(C)c1C(=O)N1CCC(C)(N2CCC(Cc3ccc(OC(F)(F)F)cc3)CC2)CC1
8.15	Cc1cccc(O)c1C(=O)N1CCC(C)(N2CCN([C@@H](C)c3ccc(I)cc3)[C@@H](C)C2)CC1
8.70	CCO/N=C(/c1ccc(Br)cc1)C1CCN(C2(C)CCN(C(=O)c3c(C)cccc3C)CC2)CC1
8.15	CCO/N=C(/c1ccc(Br)cc1)C1CCN(C2(C)CCN(C(=O)c3c(C)cc(O)nc3C)CC2)CC1
8.47	CO/N=C(/c1ccc(Br)cc1)C1CCN(C2(C)CCN(C(=O)c3c(N)cccc3Cl)CC2)CC1
8.05	Cc1cccc(C)c1C(=O)N1CCC(C)(N2CCC(/C(=N\OC(C)(C)C)c3ccc(Br)cc3)CC2)CC1
9.15	CCO/N=C(/c1ccc(Br)cc1)C1CCN(C2(C)CCN(C(=O)c3c(Br)c[n+]([O-])cc3Br)CC2)CC1
7.48	CNC(=O)CO/N=C(/c1ccc(Br)cc1)C1CCN(C2(C)CCN(C(=O)c3c(C)cccc3C)CC2)CC1
8.25	CCO/N=C(/c1ccc(Cl)cc1)C1CCN(C2(C)CCN(C(=O)c3c(C)cc[n+]([O-])c3C)CC2)CC1
8.52	CCO/N=C(/c1ccc(Br)cc1)C1CCN(C2(C)CCN(C(=O)c3c(F)cccc3C(F)(F)F)CC2)CC1
